Assay results as given in PubChem BioAssay (NCI).
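Results reflect a 48-hour exposure of cells in 96-well plates to compound at five concentrations. TGI marks complete inhibition of growth.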

Assays:
Test in all cases: growth of human tumour cells (NCI), 48 h
SN12C renal = tested on: SN12C renal
HOP-92 NSCLC = tested on: HOP-92 NSCLC
SF-295 CNS = tested on: SF-295 CNS
OVCAR-8 ovarian = tested on: OVCAR-8 ovarian
HS 578T breast = tested on: HS 578T breast
786-0 renal = tested on: 786-0 renal
NCI-H460 lung = tested on: NCI-H460 lung
M14 melanoma = tested on: M14 melanoma
UACC-62 melanoma = tested on: UACC-62 melanoma
MDA-MB-231 breast = tested on: MDA-MB-231 breast
EKVX NSCLC = tested on: EKVX NSCLC
UO-31 renal = tested on: UO-31 renal
UACC-257 melanoma = tested on: UACC-257 melanoma
SF-539 CNS = tested on: SF-539 CNS
HL-60(TB) leukemia = tested on: HL-60(TB) leukemia
MCF7 breast = tested on: MCF7 breast
SK-MEL-2 melanoma = tested on: SK-MEL-2 melanoma
OVCAR-5 ovarian = tested on: OVCAR-5 ovarian
OVCAR-3 ovarian = tested on: OVCAR-3 ovarian
SNB-75 CNS = tested on: SNB-75 CNS
SW-620 colon = tested on: SW-620 colon
HCT-116 colon = tested on: HCT-116 colon
IGROV1 ovarian = tested on: IGROV1 ovarian
MALME-3M melanoma = tested on: MALME-3M melanoma
A498 renal = tested on: A498 renal
SK-OV-3 ovarian = tested on: SK-OV-3 ovarian
ACHN renal = tested on: ACHN renal
BT-549 breast = tested on: BT-549 breast
CAKI-1 renal = tested on: CAKI-1 renal
NCI/ADR-RES ovarian = tested on: NCI/ADR-RES ovarian
COLO 205 colon = tested on: COLO 205 colon
OVCAR-4 ovarian = tested on: OVCAR-4 ovarian
DU-145 prostate = tested on: DU-145 prostate
SK-MEL-28 melanoma = tested on: SK-MEL-28 melanoma
MDA-MB-435 = tested on: MDA-MB-435
SNB-19 CNS = tested on: SNB-19 CNS
T-47D breast = tested on: T-47D breast
NCI-H226 lung = tested on: NCI-H226 lung
TK-10 renal = tested on: TK-10 renal
NCI-H522 lung = tested on: NCI-H522 lung
SF-268 CNS = tested on: SF-268 CNS
RPMI-8226 leukemia = tested on: RPMI-8226 leukemia
HOP-62 NSCLC = tested on: HOP-62 NSCLC
MDA-N = tested on: MDA-N
CCRF-CEM leukemia = tested on: CCRF-CEM leukemia
A549 NSCLC = tested on: A549 NSCLC
HT29 colon = tested on: HT29 colon
MOLT-4 leukemia = tested on: MOLT-4 leukemia
U251 CNS = tested on: U251 CNS
KM12 colon = tested on: KM12 colon
PC-3 prostate = tested on: PC-3 prostate
LOX IMVI melanoma = tested on: LOX IMVI melanoma
RXF 393 renal = tested on: RXF 393 renal
NCI-H23 lung = tested on: NCI-H23 lung
HCT-15 colon = tested on: HCT-15 colon
SK-MEL-5 melanoma = tested on: SK-MEL-5 melanoma

O=[N+]([O-])c1cccc2nc3ccccc3c(NCCCN3CCOCC3)c12
TGI (SN12C renal): 45.5 nM | TGI (HOP-92 NSCLC): 43.4 nM | TGI (SF-295 CNS): 85.4 nM | TGI (OVCAR-8 ovarian): 141 nM | TGI (HS 578T breast): > 100000 nM | TGI (786-0 renal): 40.4 nM | TGI (NCI-H460 lung): 66.1 nM | TGI (M14 melanoma): 23.3 nM | TGI (UACC-62 melanoma): 32.6 nM | TGI (MDA-MB-231 breast): 97.3 nM | TGI (EKVX NSCLC): 55.9 nM | TGI (UO-31 renal): 56.4 nM | TGI (UACC-257 melanoma): 52.7 nM | TGI (SF-539 CNS): 138 nM | TGI (HL-60(TB) leukemia): 157 nM | TGI (MCF7 breast): 103 nM | TGI (SK-MEL-2 melanoma): 36.2 nM | TGI (OVCAR-5 ovarian): 84.1 nM | TGI (OVCAR-3 ovarian): 48.4 nM | TGI (SNB-75 CNS): 114 nM | TGI (SW-620 colon): 686 nM | TGI (HCT-116 colon): < 29.8 nM | TGI (IGROV1 ovarian): 84 nM | TGI (MALME-3M melanoma): 26 nM | TGI (A498 renal): 37.7 nM | TGI (SK-OV-3 ovarian): 267 nM | TGI (ACHN renal): 50.6 nM | TGI (BT-549 breast): 115 nM | TGI (CAKI-1 renal): 78.5 nM | TGI (NCI/ADR-RES ovarian): 341 nM | TGI (COLO 205 colon): 30.3 nM | TGI (OVCAR-4 ovarian): 49.4 nM | TGI (DU-145 prostate): 29.8 nM | TGI (SK-MEL-28 melanoma): 138 nM | TGI (MDA-MB-435): 24.2 nM | TGI (SNB-19 CNS): 177 nM | TGI (T-47D breast): 241 nM | TGI (NCI-H226 lung): 50.1 nM | TGI (TK-10 renal): 149 nM | TGI (NCI-H522 lung): 93.6 nM | TGI (SF-268 CNS): 744 nM | TGI (RPMI-8226 leukemia): 187 nM | TGI (HOP-62 NSCLC): 61.8 nM | TGI (MDA-N): 14.9 nM | TGI (CCRF-CEM leukemia): 130 nM | TGI (A549 NSCLC): 67.4 nM | TGI (HT29 colon): 34.9 nM | TGI (MOLT-4 leukemia): 24200 nM | TGI (U251 CNS): 140 nM | TGI (KM12 colon): 54 nM | TGI (PC-3 prostate): 68.4 nM | TGI (LOX IMVI melanoma): 1660 nM | TGI (RXF 393 renal): 29.4 nM | TGI (NCI-H23 lung): 41.8 nM | TGI (HCT-15 colon): 49.1 nM | TGI (SK-MEL-5 melanoma): 26.3 nM
